Measured values published in article PMC12681378, “Transcriptomic and enzymological evidence for plastid peptidoglycan synthesis in the gymnosperm Picea abies” (The Plant Journal, 2025).

How the values were obtained:
Format in all cases: biochemical
[1] = biological target: T1, Pseudomonas aeruginosa MurE (Pseudomonas aeruginosa, UniProt Q59650); test: Amplex Red phosphate-release coupled assay; NADH assay; details: 30 C, pH 7.6, 10 mM MgCl2, ATP
T1 construct: cloned into pET21; E. coli
T1 sequence (Q59650 1-487): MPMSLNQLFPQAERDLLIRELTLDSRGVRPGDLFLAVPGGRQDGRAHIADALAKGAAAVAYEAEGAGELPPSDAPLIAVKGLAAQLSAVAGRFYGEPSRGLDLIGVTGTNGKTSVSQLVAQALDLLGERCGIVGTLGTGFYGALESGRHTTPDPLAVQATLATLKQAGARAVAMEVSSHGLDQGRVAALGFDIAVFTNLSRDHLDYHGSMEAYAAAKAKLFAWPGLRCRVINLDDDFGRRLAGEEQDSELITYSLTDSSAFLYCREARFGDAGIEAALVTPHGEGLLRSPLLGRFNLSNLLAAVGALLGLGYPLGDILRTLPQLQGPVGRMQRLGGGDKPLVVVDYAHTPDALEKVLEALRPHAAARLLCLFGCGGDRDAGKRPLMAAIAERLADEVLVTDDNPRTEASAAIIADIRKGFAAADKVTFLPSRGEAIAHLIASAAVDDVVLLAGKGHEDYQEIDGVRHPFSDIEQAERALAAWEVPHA

His_AnMurE (46T) [2] = biological target: T2, His_AnMurE (46T) (Nostoc sp. PCC 7120 = FACHB-418, UniProt Q8YWF0); test: Amplex Red phosphate-release coupled assay; details: 30 C, pH 7.6, 10 mM MgCl2, ATP, UDP-MurNAc-L-Ala-D-Glu
T2 construct: gene murE; N-terminal His tag (pPROEX); E. coli
T2 sequence (Q8YWF0 1-496): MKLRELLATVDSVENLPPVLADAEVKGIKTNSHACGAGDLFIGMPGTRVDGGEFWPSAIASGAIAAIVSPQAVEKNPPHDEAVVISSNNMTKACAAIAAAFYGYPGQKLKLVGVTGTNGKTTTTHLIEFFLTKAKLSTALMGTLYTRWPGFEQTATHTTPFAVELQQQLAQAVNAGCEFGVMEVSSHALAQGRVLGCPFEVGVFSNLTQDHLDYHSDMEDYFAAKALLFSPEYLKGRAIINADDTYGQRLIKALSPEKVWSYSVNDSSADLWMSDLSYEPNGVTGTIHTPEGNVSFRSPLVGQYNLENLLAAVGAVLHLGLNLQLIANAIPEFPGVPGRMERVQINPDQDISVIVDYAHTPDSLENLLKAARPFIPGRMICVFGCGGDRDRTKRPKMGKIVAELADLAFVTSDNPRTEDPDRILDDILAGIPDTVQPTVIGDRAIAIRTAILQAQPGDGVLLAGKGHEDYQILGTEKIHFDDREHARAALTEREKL

PpMurE-TP_Avi_His (1.1T) = biological target: T3, PpMurE-TP_Avi_His (1.1T) (Physcomitrium patens, UniProt Q3LHI5); test: Amplex Red phosphate-release coupled assay; NADH assay; details: 30 C, pH 7.6, 10 mM MgCl2, ATP
T3 construct: gene MurE; from Leu63; transit peptide removed; E. coli
T3 sequence (Q3LHI5 entry or part of it): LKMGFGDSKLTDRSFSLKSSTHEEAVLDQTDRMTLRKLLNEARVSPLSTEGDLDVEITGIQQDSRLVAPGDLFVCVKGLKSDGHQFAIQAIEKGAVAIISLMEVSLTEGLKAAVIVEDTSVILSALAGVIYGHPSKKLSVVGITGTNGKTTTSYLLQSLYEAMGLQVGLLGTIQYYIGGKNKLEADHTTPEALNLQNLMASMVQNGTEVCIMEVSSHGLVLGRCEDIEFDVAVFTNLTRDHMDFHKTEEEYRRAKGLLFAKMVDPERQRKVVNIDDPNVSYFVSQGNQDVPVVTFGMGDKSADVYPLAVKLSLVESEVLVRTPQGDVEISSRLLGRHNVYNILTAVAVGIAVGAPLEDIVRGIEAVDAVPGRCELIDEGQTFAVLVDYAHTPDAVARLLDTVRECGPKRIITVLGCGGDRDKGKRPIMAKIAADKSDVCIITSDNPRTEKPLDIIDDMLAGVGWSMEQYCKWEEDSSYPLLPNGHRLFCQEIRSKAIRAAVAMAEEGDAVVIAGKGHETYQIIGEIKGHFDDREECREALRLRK

[3] = biological target: T4, Streptococcus pneumoniae MurE (Streptococcus pneumoniae, UniProt Q8CWQ5); test: Amplex Red phosphate-release coupled assay; details: 30 C, pH 7.6, 10 mM MgCl2, ATP
T4 construct: cloned into pET21; E. coli
T4 sequence (Q8CWQ5 1-481): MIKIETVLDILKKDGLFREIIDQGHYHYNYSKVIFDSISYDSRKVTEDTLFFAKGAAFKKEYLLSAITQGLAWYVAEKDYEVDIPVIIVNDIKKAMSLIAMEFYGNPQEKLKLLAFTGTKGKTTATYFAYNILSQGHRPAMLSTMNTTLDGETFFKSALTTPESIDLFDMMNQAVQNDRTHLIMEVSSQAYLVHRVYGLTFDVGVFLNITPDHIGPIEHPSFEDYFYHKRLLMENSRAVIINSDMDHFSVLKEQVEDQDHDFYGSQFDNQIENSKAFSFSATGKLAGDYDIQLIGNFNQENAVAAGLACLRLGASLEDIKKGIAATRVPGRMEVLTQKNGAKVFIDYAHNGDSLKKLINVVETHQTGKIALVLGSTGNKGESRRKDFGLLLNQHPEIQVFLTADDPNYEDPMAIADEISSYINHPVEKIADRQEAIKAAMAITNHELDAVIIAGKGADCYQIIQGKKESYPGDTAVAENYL

His_AnMurE (46T) [4] = biological target: T2, His_AnMurE (46T); test: inhibition seen in Amplex Red coupled assay; details: product inhibition; 30 C, pH 7.6

Compound: N[C@H](CCC[C@H](N)C(=O)O)C(=O)O [D, L-diaminopimelate]
- Amplex Red phosphate-release coupled assay; NADH assay ([1]; UDP-MurNAc-L-Ala-D-Glu): an order of magnitude less active than Pseudomonas aeruginosa MurE
- Amplex Red phosphate-release coupled assay (His_AnMurE (46T) [2]): D, L‐lanthionine was equally as efficiently incorporated as D, L‐DAP by Anabaena MurE
- Amplex Red phosphate-release coupled assay; NADH assay (PpMurE-TP_Avi_His (1.1T); UDP-MurNAc-L-Ala-D-Glu): predominant substrate for both the moss, PpMurE, and cyanobacterial, AnMurE, ligases

Compound: N[C@@H](CSC[C@H](N)C(=O)O)C(=O)O (racemic) [D, L-lanthionine]
- Amplex Red phosphate-release coupled assay (His_AnMurE (46T) [2]): D, L‐lanthionine was equally as efficiently incorporated as D, L‐DAP by Anabaena MurE

Compound: NCCCC[C@H](N)C(=O)O [L-lysine]
- Amplex Red phosphate-release coupled assay ([3]; UDP-MurNAc-L-Ala-D-Glu): able to utilize both L‐hydroxylysine and L‐lysine as substrates

Compound: Nc1ncnc2c1ncn2[C@@H]1O[C@H](COP(=O)(O)OP(=O)(O)O)[C@@H](O)[C@H]1O [ADP]
- inhibition seen in Amplex Red coupled assay (His_AnMurE (46T) [4]): an observed inhibitory effect of ADP on AnMurE in the Amplex Red assay

Compound: CC(=O)N[C@H]1[C@@H](OP(=O)(O)OP(=O)(O)OC[C@H]2O[C@@H](n3ccc(=O)[nH]c3=O)[C@H](O)[C@@H]2O)O[C@H](CO)[C@@H](O)[C@@H]1O[C@H](C)C(=O)N[C@@H](C)C(=O)N[C@H](CCC(=O)O)C(=O)O [UDP-N-acetylmuramoyl-L-alanyl-D-glutamate]
- Amplex Red phosphate-release coupled assay; NADH assay ([1]; D,L-DAP): D, L‐DAP) and UDP‐N‐acetylmuramoyl‐ L‐alanyl‐D‐glutamate as substrates
- Amplex Red phosphate-release coupled assay; NADH assay (PpMurE-TP_Avi_His (1.1T); D,L-DAP): UDP‐N‐acetylmuramoyl‐L‐alanyl‐D‐glutamate as the recipient molecule
- Amplex Red phosphate-release coupled assay ([3]; L-lysine): L‐lysine as substrates with UDP‐N‐acetylmuramoyl‐L‐alanyl‐D‐glutamate as the acceptor
